# Measurements: patent US20240306639A1, “USE OF FLUAZIFOP-P-BUTYL FOR INSECT CONTROL” (priority 2021, published 2024)
# Test system: Bemisia tabaci (Silverleaf whitefly)
# Assay: Curative control of Bemisia tabaci second nymph stage (N2) on French beans, spray application
# Type: in vivo
# Source text: Examples 1 to 3 describe biological tests relating to the curative and preventative control of a series of insects with the spray application of dilutions of a formulation containing fluazifop-P-butyl as sole active ingredient (EC125 formulation (FUSILADE MAX®)) in combination with OCHIMAR adjuvant (Syngenta-alkyl ester of phosphoric acid (752 g/L EC formulation)) to bean or cabbage plants infested with Bemisia tabaci, Frankliniella occidentalis or Myzus persicae. The testing protocols and insect control effects are shown. • ai=active ingredient (fluazifop-P-butyl).
# Curative control of Bemisia tabaci (Silverleaf whitefly), second nymph stage (N2), treated on French beans (BBCH12):
# • All treatments including check were applied with 250 mL adjuvant (Ochima) per hectare (ha).
smiles,measurement,setting,value
"CCCCOC(=O)[C@@H](C)Oc1ccc(Oc2ccc(C(F)(F)F)cn2)cc1 [fluazifop-P-butyl, butyl (2R)-2-[4-[5-(trifluoromethyl)pyridin-2-yl]oxyphenoxy]propanoate]",efficacy against whiteflies compared to thrips or aphids,conclusion from the data in Tables 1 to 3,selective efficacy
same,controlling whitefly,effect enhanced compared to aphids and thrips,highly effective
